Target: T1, KDM4C (Homo sapiens, UniProt Q9H3R0)
T1 construct: N-terminal GST-tagged KDM4C^2-372 was purchased from BPS Biosciences; GST (N); purchased BPS Biosciences
T1 sequence (Q9H3R0 2-372): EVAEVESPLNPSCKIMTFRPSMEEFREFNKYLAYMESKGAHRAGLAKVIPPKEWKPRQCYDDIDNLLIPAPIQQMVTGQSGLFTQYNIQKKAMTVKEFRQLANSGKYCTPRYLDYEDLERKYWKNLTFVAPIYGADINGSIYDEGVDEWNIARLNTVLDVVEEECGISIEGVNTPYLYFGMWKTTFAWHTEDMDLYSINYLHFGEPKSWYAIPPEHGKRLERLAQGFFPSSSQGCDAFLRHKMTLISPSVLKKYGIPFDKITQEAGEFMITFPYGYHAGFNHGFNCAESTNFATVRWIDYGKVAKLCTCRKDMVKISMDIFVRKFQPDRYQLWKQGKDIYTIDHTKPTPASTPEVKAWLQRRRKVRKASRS
Test: KDM4C Assay (SAMDI mass spectrometry demethylase assay)
Format: biochemical
Details: N-terminal GST-tagged KDM4C 2-372; class symbols; read-out: 4C IC50
Procedure: N-terminal GST-tagged KDM4C^2-372 was purchased from BPS Biosciences. Peptides were synthesized by BioPeptide and all other reagents were purchased from Sigma-Aldrich at the highest level of purity possible. Assays were performed in a 50 μL volume in 384-well V-bottom polypropylene microplates (Greiner) at 25° C. Optimized 1× assay buffer was 50 mM HEPES (pH=8.0), 100 μM sodium ascorbate, 20 mM NaCl, 10 μM ammonium iron sulfate, 1 mM tris(2-carboxyethyl)phosphine (TCEP), 0.002% Tween-20, and 0.005% BSG. For compound screening, 35 μL of KDM4C^2-372 (final concentration, f.c.=5 nM) was added using a Multidrop Combi and preincubated with 1 μL of test compound (f.c.=10 μM) for 30 minutes and subsequently 15 μL of peptide with the following sequence NH2-ARTKQTAR(Kme3)STGGKAPRKQLA(K-Ahx-Biotin)-amide (f.c.=500 nM) and 2-oxoglutarate (f.c.=15 μM) was added by Multidrop Combi to begin the reaction. Reactions proceeded for 150 minutes and were stopped by the addition of 5 μL of formic acid (f.c.=0.5%) using a Multidrop Combi and then analyzed by SAMDI Tech Inc.
SAMDI Tech analyzed all reactions using self-assembled monoloayer desorption/ionization technology as previously described (Gerard-Levin Z A, Scholle M D, Eisenberg A H, et al.: High-throughput screening of small molecule libraries using SAMDI mass spectrometry. ACS Comb Sci 2011; 13:347-350). Briefly, a 2 μL sample of the stopped demethylase reactions were transferred to a SAMDI array coated with 384 biotin-neutravidin spots using a 384-channel pipet station. The SAMDI arrays were incubated for 1 h in a humidified chamber, followed by washing of the surface with deionized ultra-filtered water (DIUF) and drying under nitrogen. A matrix of 30 mg/ml 2′,4′,6′-Trihydroxyacetophenone monohydrate (THAP) in acetone was applied using a TPP Mosquito 1.2 μL tip by dispensing 50 nL on each of the 384 spots on the array. SAMDI-MS was run using acquisition method ReflectorPositiveUTX. The % conversion of substrate to product was calculated using the AUC of the substrate and product peptide peaks.
An IC50 value was determined by contacting various concentrations of a test compound with one of the KDM4A, KDM4C or KDMSC enzyme constructs and plotting a dose-response curve which associates the amount of inhibition of the enzyme relative to the concentration of the test compound. From the curve, the IC50 value (which represents the concentration of the test compound necessary to inhibit maximal enzymatic activity by 50%) was determined. Additionally, the slope of the linear range of the plotted curve, which indicates the speed with which the curve rises between the minimum and maximum, was calculated.

Row | IC50 [µM] | SMILES
1 | 0.1 to 1 | Cc1c(Nc2cnccc2C(=O)O)cnn1C1CCN(C(C)C)CC1 [Compound 104]
2 | 0.1 to 1 | COCCn1nc(-c2ccccc2)cc1Nc1cnccc1C(=O)O [Compound 27, 3-((1-(2-Methoxyethyl)-3-phenyl-1H-pyrazol-5-yl)amino) isonicotinic acid]
3 | 1 to 10 | Cn1ncc(-c2cccc(F)c2)c1Nc1cnccc1C(=O)O [Compound 10, 3-((4-(3-Fluorophenyl)-1-methyl-1H-pyrazol-5-yl)amino) isonicotinic acid]
4 | 0.001 to 0.1 | Cc1c(Nc2cnccc2C(=O)O)cnn1[C@H]1CC[C@@H](N)CC1 [Compound 79, 3-((1-((cis)-4-aminocyclohexyl)-5-methyl-1H-pyrazol-4-yl)amino)isonicotinic acid]
5 | 1 to 10 | Cn1nc(-c2ccc(Cl)cc2)cc1Nc1cnccc1C(=O)O [Compound 24, 3-((3-(4-Chlorophenyl)-1-methyl-1H-pyrazol-5-yl)amino) isonicotinic acid]
6 | 0.1 to 1 | COc1ccccc1-n1cc(C)c(Nc2cnccc2C(=O)O)n1 [Compound 63, 3-((1-(2-methoxyphenyl)-4-methyl-1H-pyrazol-3-yl)amino) isonicotinic acid]
7 | 10 to 100 | COC(=O)c1ccncc1Nc1cnn(C2CCN(C(C)C)CC2)c1C [Compound 103, methyl 3-((1-(1-isopropylpiperidin-4-yl)-5-methyl-1H-pyrazol-4-yl)amino)isonicotinate]
8 | 0.1 to 1 | Cn1cc(-c2ccccc2F)c(Nc2cnccc2C(=O)O)n1 [Compound 11, 3-((4-(2-Fluorophenyl)-1-methyl-1H-pyrazol-3-yl)amino) isonicotinic acid]
9 | 1 to 10 | O=C(O)c1ccncc1Nc1cn(CCN2CCC(F)(F)CC2)nc1-c1ccccc1 [Compound 17, 3-((1-(2-(4,4-Difluoropiperidin-1-yl)ethyl)-3-phenyl-1H-pyrazol-4-yl)amino)isonicotinic acid]
10 | 0.001 to 0.1 | Cc1c(Nc2cnccc2C(=O)O)cnn1Cc1ccccc1 [Compound 33, 3-((1-benzyl-5-methyl-1H-pyrazol-4-yl)amino)isonicotinic acid]
11 | 0.001 to 0.1 | CNC(=O)c1ccc(-n2ncc(Nc3cnccc3C(=O)O)c2C)cc1 [Compound 58, 3-((5-methyl-1-(4-(methylcarbamoyl)phenyl)-1H-pyrazol-4-yl)amino) isonicotinic acid]
12 | 0.1 to 1 | Cc1c(Nc2cnccc2C(=O)O)nn(CCN2CCC(F)(F)CC2)c1-c1ccccc1 [Compound 67, 3-((1-(2-(4,4-difluoropiperidin-1-yl)ethyl)-4-methyl-5-phenyl-1H-pyrazol-3-yl)amino)isonicotinic acid]
13 | 0.1 to 1 | Cc1nn(-c2ccccc2)cc1Nc1cnccc1C(=O)O [Compound 19, 3-((3-Methyl-1-phenyl-1H-pyrazol-4-yl)amino)isonicotinic acid]
14 | 0.001 to 0.1 | Cc1cn(-c2ccccc2)nc1Nc1cnccc1C(=O)O [Compound 62, 3-((4-methyl-1-phenyl-1H-pyrazol-3-yl)amino) isonicotinic acid]
15 | 10 to 100 | CN1CCN(CCn2cc(-c3ccccc3)c(Nc3cnccc3C(=O)O)n2)CC1 [Compound 34, 3-((1-(2-(4-Methylpiperazin-1-yl)ethyl)-4-phenyl-1H-pyrazol-3-yl)amino)isonicotinic acid]
16 | 0.001 to 0.1 | Cc1c(Nc2cnccc2C(=O)O)cnn1-c1ccccc1 [Compound 20, 3-((5-methyl-1-phenyl-1H-pyrazol-4-yl)amino)isonicotinic acid]
17 | 1 to 10 | Cn1cc(-c2ccccc2)c(Nc2cnccc2C(=O)O)n1 [Compound 3]
18 | 0.1 to 1 | Cc1nn(-c2ccccc2)c(C)c1Nc1cnccc1C(=O)O [Compound 77, 3-((3,5-dimethyl-1-phenyl-1H-pyrazol-4-yl)amino)isonicotinic acid]
19 | 0.1 to 1 | O=C(O)c1ccncc1Nc1nn(CCN2CCC(F)(F)CC2)cc1-c1ccc(F)cc1 [Compound 45, 3-((1-(2-(4,4-difluoropiperidin-1-yl)ethyl)-4-(4-fluorophenyl)-1H-pyrazol-3-yl)amino)isonicotinic acid]

Row | IC50 [µM] | SMILES
20 | 0.1 to 1 | O=C(O)c1ccncc1Nc1cc(-c2ccccc2)nn1C1CCOCC1 [Compound 23, 3-((3-Phenyl-1-(tetrahydro-2H-pyran-4-yl)-1H-pyrazol-5-yl)amino)isonicotinic acid]
21 | 1 to 10 | NCCn1nc(-c2ccccc2)cc1Nc1cnccc1C(=O)O [Compound 26]
22 | 0.1 to 1 | Cc1cc(Nc2cnccc2C(=O)O)nn1-c1ccccc1 [Compound 60, 3-((5-methyl-1-phenyl-1H-pyrazol-3-yl)amino)isonicotinic acid]
23 | 0.1 to 1 | O=C(O)c1ccncc1Nc1cn(-c2ccccc2)nc1-c1ccccc1 [Compound 41, 3-((1,3-Diphenyl-1H-pyrazol-4-yl)amino)isonicotinic acid]
24 | 0.1 to 1 | Cc1cn(-c2ccccc2)c(Nc2cnccc2C(=O)O)n1 [Compound 2]
25 | 0.1 to 1 | CCn1nc(-c2ccccc2)cc1Nc1cnccc1C(=O)O [Compound 36, 3-((1-Ethyl-3-phenyl-1H-pyrazol-5-yl)amino)isonicotinic acid]
26 | 10 to 100 | Cc1n[nH]c(C)c1Nc1cnccc1C(=O)O [Compound 16, 3-((3,5-Dimethyl-1H-pyrazol-4-yl)amino)isonicotinic acid]
27 | 0.1 to 1 | Cc1nn(C2CCCNCC2)cc1Nc1cnccc1C(=O)O (single isomer, unassigned) [Compound 114]
28 | 10 to 100 | CN(C)CCCn1ncc(-c2ccccc2)c1Nc1cnccc1C(=O)O [Compound 52, 3-((1-(3-(dimethylamino)propyl)-4-phenyl-1H-pyrazol-5-yl)amino) isonicotinic acid]
29 | 1 to 10 | Cc1nn(-c2ccc(O)cc2)c(C)c1Nc1cnccc1C(=O)O [Compound 76, 3-((1-(4-hydroxyphenyl)-3,5-dimethyl-1H-pyrazol-4-yl)amino)isonicotinic acid]
30 | 1 to 10 | O=C(O)c1ccncc1Nc1cc(-c2ccccc2)nn1[C@H]1CC[C@@H](O)CC1 [Compound 40, 3-((1-((cis)-4-Hydroxycyclohexyl)-3-phenyl-1H-pyrazol-5-yl)amino)isonicotinic acid]
31 | 0.1 to 1 | Cc1cn(-c2ccccc2C#N)nc1Nc1cnccc1C(=O)O [Compound 71, 3-((1-(2-cyanophenyl)-4-methyl-1H-pyrazol-3-yl)amino) isonicotinic acid]
32 | 0.1 to 1 | CN1CCN(CCn2ncc(-c3ccccc3)c2Nc2cnccc2C(=O)O)CC1 [Compound 35, 3-((1-(2-(4-methylpiperazin-1-yl)ethyl)-4-phenyl-1H-pyrazol-5-yl)amino)isonicotinic acid]
33 | 0.1 to 1 | Cc1nn(C2CCCN(C)CC2)cc1Nc1cnccc1C(=O)O (stereo not shown) [Compound 111, 3-(3-methyl-1-(1-methylazepan-4-yl)-1H-pyrazol-4-ylamino) isonicotinic acid]
34 | 1 to 10 | Cc1nn(-c2ccccc2C#N)cc1Nc1cnccc1C(=O)O [Compound 70, 3-((1-(2-cyanophenyl)-3-methyl-1H-pyrazol-4-yl)amino) isonicotinic acid]
35 | 1 to 10 | Cc1nn(C2CCNCC2)cc1Nc1cnccc1C(=O)O [Compound 69, 3-((3-methyl-1-(piperidin-4-yl)-1H-pyrazol-4-yl)amino) isonicotinic acid]
36 | 0.1 to 1 | O=C(O)c1ccncc1Nc1cc(-c2ccccc2)nn1-c1ccccc1 [Compound 21, 3-((1,3-Diphenyl-1H-pyrazol-5-yl)amino)isonicotinic acid]
37 | 0.1 to 1 | Cc1c(Nc2cnccc2C(=O)O)cnn1C1CCNCC1 [Compound 68, 3-((5-methyl-1-(piperidin-4-yl)-1H-pyrazol-4-yl)amino)isonicotinic acid]

Source: US20170291890A1 (Epizyme, Inc., priority 2014, published 2017)
